This passage reports IC50 results from patent publication US20240140958A1, “FUSED QUADRACYCLIC COMPOUNDS, COMPOSITIONS AND USES THEREOF” (Tabomedex Biosciences, Inc., priority 2021, published 2024).

Test [1] deals with T1, MAPKAPK2 Recombinant Human Protein (Homo sapiens, UniProt P49137).
T1 construct: purchased ThermoFisher pv3317
Kind of test: MK2 kinase assay (Z'-LYTE kinase assay kit). Particulars: inhibition of MK2 biochemical activity; 90 min incubation at room temperature. An outline of the steps:
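Z'-LYTE FRET assay with recombinant human MAPKAPK2 and peptide substrate; compound and ATP added, kinase reaction 90 min at room temperature, then development 60 min before stop. Coumarin (445 nm) and fluorescein (520 nm) emissions read at 400 nm excitation.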

Test [2] has as its system THP-1 cells. Kind of test: THP-1 cell assay: LPS-stimulated pSer78-Hsp27 ELISA. The format is cell-based. Conditions: Homo sapiens, PMA-differentiated THP-1 cells, compound 60 min before 20 ng/mL LPS for 30 min. The source says:
Materials and Reagents for Measuring Activity in THP-1 Cells: • 1) THP-1 cells (Cell bank of Shanghai) • 2) PMA (Sigma, Cat.No. P1585) • 3) LPS (Sigma, Cat.No. L4516) • 4) 96-well tissue-culture treated plate (Grenier, Cat.No. 655180) • 5) FBS (Thermofisher, Cat.No. 10100147) • 6) Complete EDTA-free protease inhibitor Cocktail (Roche, Cat.No. 4693132001) • 7) PhosSTOP (Roche, Cat.No. 4906845001) • 8) Phosphor-Hsp27 (Ser78) Sandwich Elisa kit (CST, Cat.No. 7295)
Cell Assay Procedure: • 1) Day 0: THP-1 cells are seeded at 50K/well in complete media (1640+10% FBS+50 μM β-ME)+20 ng/mL PMA in 96-well plate • 2) Day 1: PMA containing media is removed after 24 h incubation (37° C./5% CO2), and replaced with complete growth media. Cells are incubated an additional 48 h to recover. • 3) Day 3: Cells are incubated with or without compounds at indicated concentrations for 60 min, prior to addition of 20 ng/mL LPS. Cells are stimulated for 30 min with LPS, washed 1× with ice cold PBS, lysed on ice in Lysis buffer provided in ELISA kit with Roche protease & phosphatase inhibitors. Extracts are clarified by refrigerated centrifugation & stored at −80° C. until pHsp27/total Hsp27 ELISAs • 4) Day 3 or Day 4: Cell Signaling Technology ELISA is run for pSer78-Hsp27 on lysates diluted to approximately 2.5 μg/well. • 5) The absorbance at 450 nm was read in a SpectraMax plus plate reader (Molecular Devices). Data was processed using GraphPad prism 8.0.
A general note: In an ELISA, binding on a coated surface is turned into a signal by an enzyme label.

Usually pIC50 stands for the IC50 on a negative log10 scale, so that one unit is a factor of ten.

pIC50: −log10 of the molar value.

T1 sequence (P49137 whole entry): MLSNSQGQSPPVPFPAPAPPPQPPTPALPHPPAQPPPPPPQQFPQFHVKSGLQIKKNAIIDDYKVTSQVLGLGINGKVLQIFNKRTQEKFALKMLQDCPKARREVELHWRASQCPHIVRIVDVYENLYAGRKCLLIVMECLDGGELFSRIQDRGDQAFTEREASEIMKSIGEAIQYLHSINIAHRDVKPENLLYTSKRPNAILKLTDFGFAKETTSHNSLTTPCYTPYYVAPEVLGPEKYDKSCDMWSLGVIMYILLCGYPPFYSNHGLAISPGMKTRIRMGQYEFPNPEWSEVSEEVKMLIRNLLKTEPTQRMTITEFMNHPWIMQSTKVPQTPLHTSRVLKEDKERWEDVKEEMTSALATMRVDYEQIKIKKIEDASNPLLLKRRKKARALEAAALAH

Turning to `CC(C)(C1CC(=O)N(c2ccc3c(c2)Cn2cc(-c4ccc(C#N)cc4)cc2-c2nccn2-3)C1)N1CCC1` (stereo not shown) [Example 55, 4-(7-(4-(2-(Azetidin-1-yl)propan-2-yl)-2-oxopyrrolidin-1-yl)-9H-benzo[e]imidazo[2,1-c]pyrrolo[1,2-a][1,4]diazepin-12-yl)benzonitrile], the negative logarithm of the IC50 (pIC50) in test [1] and in test [2] was more than 7.30 each time.
Take `CN(C)C[C@@H]1CN(c2ccc3c(c2)Cn2cc(-c4ccc(C#N)cc4)cc2-c2nccn2-3)C(=O)N1C` [Example 56, (R)-4-(7-(4-((Dimethylamino)methyl)-3-methyl-2-oxoimidazolidin-1-yl)-9H-benzo[e]imidazo[2,1-c]pyrrolo[1,2-a][1,4]diazepin-12-yl)benzonitrile]: the values for the pIC50 in test [1] and in test [2] were 7.00 to 7.30 and 6.52 to 6.70, respectively.
Taken in the same sequence, the figures for `CN(C)CCN1CCN(c2ccc3c(c2)Cn2cc(-c4ccc(C#N)cc4)cc2-c2nccn2-3)C1=O` [Example 57, 4-(7-(3-(2-(Dimethylamino)ethyl)-2-oxoimidazolidin-1-yl)-9H-benzo[e]imidazo[2,1-c]pyrrolo[1,2-a][1,4]diazepin-12-yl)benzonitrile] were more than 7.30 and more than 7.30.
For the molecule `CN1CC(N2CCN(c3ccc4c(c3)Cn3cc(-c5ccc(C#N)cc5)cc3-c3nccn3-4)C2=O)C1` [Example 58, 4-(7-(3-(1-Methylazetidin-3-yl)-2-oxoimidazolidin-1-yl)-9H-benzo[e]imidazo[2,1-c]pyrrolo[1,2-a][1,4]diazepin-12-yl)benzonitrile], the pIC50 in test [1] and in test [2] was more than 7.30 in each case.
In the case of `CN(C)[C@H]1C[C@@H](N2CCN(c3ccc4c(c3)Cn3cc(-c5ccc(C#N)cc5)cc3-c3nccn3-4)C2=O)C1` [Example 59], the pIC50 was more than 7.30 in test [1] and 7.00 to 7.30 in test [2].
Turning to `C[C@H]1[C@@H](CN(C)C)OC(=O)N1c1ccc2c(c1)Cn1cc(-c3ccc(C#N)cc3)cc1-c1nccn1-2` [Example 61, 4-(7-((4S,5R)-5-((Dimethylamino)methyl)-4-methyl-2-oxooxazolidin-3-yl)-9H-benzo[e]imidazo[2,1-c]pyrrolo[1,2-a][1,4]diazepin-12-yl)benzonitrile], the negative logarithm of the IC50 (pIC50) was 7.00 to 7.30 in test [1] and 6.40 to 6.52 in test [2].
Take `CN1CC(C)(CN2C(=O)CN(c3ccc4c(c3)Cn3cc(-c5ccc(C#N)cc5)cc3-c3nccn3-4)C2=O)C1` [Example 65, 4-(7-(3-((1,3-Dimethylazetidin-3-yl)methyl)-2,4-dioxoimidazolidin-1-yl)-9H-benzo[e]imidazo[2,1-c]pyrrolo[1,2-a][1,4]diazepin-12-yl)benzonitrile]: the pIC50 in test [1] and in test [2] was more than 7.30 in each case.
For `N#Cc1ccc(-c2cc3n(c2)Cc2cc(N4CC(=O)N(CC5CNC5)C4=O)ccc2-n2ccnc2-3)cc1` [Example 66], the pIC50 in test [1] was more than 7.30; in test [2], less than 6.00.
With `CN1CC(CN2C(=O)CN(c3ccc4c(c3)Cn3cc(-c5ccc(C#N)cc5)cc3-c3nccn3-4)C2=O)C1` [Example 67], the pIC50 is more than 7.30 in test [1] and less than 6.00 in test [2].
Turning to `CC(C)(N)CN1C(=O)CN(c2ccc3c(c2)Cn2cc(-c4ccc(C#N)cc4)cc2-c2nccn2-3)C1=O` [Example 68], the pIC50 in test [1] and in test [2] was more than 7.30 in each case.
Turning to `CN1CC(N2C(=O)CN(c3ccc4c(c3)Cn3cc(-c5ccc(C#N)cc5)cc3-c3nccn3-4)C2=O)C1` [Example 69], the pIC50 in test [1] and in test [2] was more than 7.30 each time.
Regarding `CN(C)CCn1ccn(-c2ccc3c(c2)Cn2cc(-c4ccc(C#N)cc4)cc2-c2nccn2-3)c1=O` [Example 70, 4-(7-(3-(2-(Dimethylamino)ethyl)-2-oxo-2,3-dihydro-1H-imidazol-1-yl)-9H-benzo[e]imidazo[2,1-c]pyrrolo[1,2-a][1,4]diazepin-12-yl)benzonitrile], the values for the pIC50 in test [1] and in test [2] were more than 7.30 and 6.00 to 6.30, respectively.
On to `CN1CC(n2ccn(-c3ccc4c(c3)Cn3cc(-c5ccc(C#N)cc5)cc3-c3nccn3-4)c2=O)C1` [Example 71, 4-(7-(3-(1-Methylazetidin-3-yl)-2-oxo-2,3-dihydro-1H-imidazol-1-yl)-9H-benzo[e]imidazo[2,1-c]pyrrolo[1,2-a][1,4]diazepin-12-yl)benzonitrile], for which the pIC50 in test [1] was 7.00 to 7.30; in test [2], 6.52 to 6.70.
Take `CN(C)C1CCN(C(=O)Nc2ccc3c(c2)Cn2cc(-c4ccc(C#N)cc4)cc2-c2nccn2-3)C1` (stereo not shown) [Example 72]: the pIC50 in test [1] and in test [2] was more than 7.30 each time.
Take `CN(C)[C@H]1CCN(C(=O)Nc2ccc3c(c2)Cn2cc(-c4ccc(C#N)cc4)cc2-c2nccn2-3)C1` [Example 73]: the pIC50 in test [1] and in test [2] was more than 7.30 each time.
With `CN(C)[C@@H]1CCN(C(=O)Nc2ccc3c(c2)Cn2cc(-c4ccc(C#N)cc4)cc2-c2nccn2-3)C1` [Example 74], the pIC50 was more than 7.30 in test [1] and 7.00 to 7.30 in test [2].
Turning to `CN(C)CCN1C(=O)CN(c2ccc3c(c2)Cn2cc(-c4ccc(C#N)cc4)cc2-c2nccn2-3)C1=O` [Example 75, 4-(7-(3-(2-(Dimethylamino)ethyl)-2,4-dioxoimidazolidin-1-yl)-9H-benzo[e]imidazo[2,1-c]pyrrolo[1,2-a][1,4]diazepin-12-yl)benzonitrile], the pIC50 in test [1] and in test [2] was more than 7.30 throughout.
For `N#Cc1ccc(-c2cc3n(c2)Cc2cc(NC(=O)C4CCNC4)ccc2-n2ccnc2-3)cc1` (stereo not shown) [Example 76, N-(12-(4-Cyanophenyl)-9H-benzo[e]imidazo[2,1-c]pyrrolo[1,2-a][1,4]diazepin-7-yl)pyrrolidine-3-carboxamide], the pIC50 is more than 7.30 in test [1] and 5.82 to 6.00 in test [2].
With `CC(C)N1CCC(C(=O)Nc2ccc3c(c2)Cn2cc(-c4ccc(C#N)cc4)cc2-c2nccn2-3)C1` (stereo not shown) [Example 77, N-(12-(4-Cyanophenyl)-9H-benzo[e]imidazo[2,1-c]pyrrolo[1,2-a][1,4]diazepin-7-yl)-1-isopropylpyrrolidine-3-carboxamide], the pIC50 was 7.00 to 7.30 in test [1] and 6.70 to 7.00 in test [2].
Take `CN(C)CCn1cnn(-c2ccc3c(c2)Cn2cc(-c4ccc(C#N)cc4)cc2-c2nccn2-3)c1=O` [Example 79, 4-(7-(4-(2-(Dimethylamino)ethyl)-5-oxo-4,5-dihydro-1H-1,2,4-triazol-1-yl)-9H-benzo[e]imidazo[2,1-c]pyrrolo[1,2-a][1,4]diazepin-12-yl)benzonitrile]: the pIC50 was 7.00 to 7.30 in test [1] and 6.70 to 7.00 in test [2].
As to `Cc1nnc2n1-c1ccc(N3C[C@@H](CN4CCC4)CC3=O)cc1Cn1cc(-c3ccc(C#N)cc3)cc1-2` [Example 82], the pIC50 in test [1] was 7.00 to 7.30; in test [2], 6.40 to 6.52.
In the case of `[2H]C([2H])([2H])N(CC1CCN(c2ccc3c(c2)Cn2cc(-c4ccc(C#N)cc4)cc2-c2nnc(C)n2-3)C1=O)C([2H])([2H])[2H]` (stereo not shown) [Example 86, 4-(7-(3-((Bis(methyl-d3)amino)methyl)-2-oxopyrrolidin-1-yl)-3-methyl-9H-benzo [e]pyrrolo[1,2-a][1,2,4]triazolo[3,4-c][1,4]diazepin-12-yl)benzonitrile], the results for the pIC50 in test [1] and in test [2] were more than 7.30 and 6.40 to 6.52, respectively.
`CN(C)C[C@H]1CC(=O)N(c2ccc3c(c2)Cn2cc(-c4ccc(C#N)cc4)cc2-c2ncnn2-3)C1` [Example 87, (R)-4-(7-(4-((Dimethylamino)methyl)-2-oxopyrrolidin-1-yl)-9H-benzo[e]pyrrolo [1,2-a][1,2,4]triazolo[5,1-c][1,4]diazepin-12-yl)benzonitrile]: the pIC50 in test [1] was more than 7.30; in test [2], 6.70 to 7.00.
Taken in the same sequence, the figures for `CN(CCO)C[C@H]1CC(=O)N(c2ccc3c(c2)Cn2cc(-c4ccc(F)cc4)cc2-c2nccn2-3)C1` [Example 89, (R)-1-(12-(4-Fluorophenyl)-9H-benzo[e]imidazo[2,1-c]pyrrolo[1,2-a][1,4]diazepin-7-yl)-4-(((2-hydroxyethyl)(methyl)amino)methyl)pyrrolidin-2-one] were 7.00 to 7.30 and 7.00 to 7.30.
For the molecule `CN(CCO)C[C@H]1CCN(c2ccc3c(c2)Cn2cc(-c4ccc(F)cc4)cc2-c2nccn2-3)C1=O` [Example 90, (R)-1-(12-(4-Fluorophenyl)-9H-benzo[e]imidazo[2,1-c]pyrrolo[1,2-a][1,4]diazepin-7-yl)-3-(((2-hydroxyethyl)(methyl)amino)methyl)pyrrolidin-2-one], the pIC50 in test [1] was more than 7.30; in test [2], 7.00 to 7.30.
Taken in the same sequence, the figures for `CN(C)CCNC(=O)c1ccc2c(c1)Cn1cc(-c3ccc(C#N)cc3)cc1-c1nccn1-2` [Example 101, 12-(4-Cyanophenyl)-N-(2-(dimethylamino)ethyl)-9H-benzo[e]imidazo[2,1-c]pyrrolo[1,2-a][1,4]diazepine-7-carboxamide] were 7.00 to 7.30 and 6.70 to 7.00.
